The conditions of this data set: Crystal; DTA.

Molecules are shown by their SMILES. ± gives the expanded uncertainty stated by the source.

Turning to `[Ag][I]` [silver iodide], the Triple point temperature amounted to 832 ± 0.6 K. For the molecule `[Cl-].[Na+]` [sodium chloride], the Triple point temperature amounted to 1074 ± 0.6 K.
